Experimental data as given in the supplement of paper PMC10307832.

Tests used:
Assay in all cases: relative viability (nuclei count vs DMSO), 5 days (fraction); higher = more cells survive
Axitinib + Pemetrexed = compound: CNC(=O)c1ccccc1Sc1ccc2c(/C=C/c3ccccn3)n[nH]c2c1 [Axitinib] + Nc1nc2[nH]cc(CCc3ccc(C(=O)N[C@@H](CCC(=O)O)C(=O)O)cc3)c2c(=O)[nH]1 [Pemetrexed] (partner 0.2 µM)
How it was run: (§1)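 Lung cancer cell lines were pin-tool dosed in 1536-well plates on the day after seeding, with either a lone drug or a fixed anchor-drug dose plus five library-drug doses (not always all listed) in √10 steps. Nuclei were counted on 4× images after 5 days. Relative viability is the ratio of treated-well to vehicle-well nuclei counts, with each value a median of duplicate plates.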

Bemcentinib + Bortezomib = compound: Nc1nc(Nc2ccc3c(c2)CC[C@@H](N2CCCC2)CC3)nn1-c1cc2c(nn1)-c1ccccc1CCC2 [Bemcentinib] + CC(C)C[C@H](NC(=O)[C@H](Cc1ccccc1)NC(=O)c1cnccn1)B(O)O [Bortezomib] (partner 0.002 µM)
How it was run: as §1

Bemcentinib + Lapatinib = compound: Nc1nc(Nc2ccc3c(c2)CC[C@@H](N2CCCC2)CC3)nn1-c1cc2c(nn1)-c1ccccc1CCC2 [Bemcentinib] + CS(=O)(=O)CCNCc1ccc(-c2ccc3ncnc(Nc4ccc(OCc5cccc(F)c5)c(Cl)c4)c3c2)o1 [Lapatinib] (partner 2 µM)
How it was run: as §1

Bemcentinib + Tozasertib = compound: Nc1nc(Nc2ccc3c(c2)CC[C@@H](N2CCCC2)CC3)nn1-c1cc2c(nn1)-c1ccccc1CCC2 [Bemcentinib] + Cc1cc(Nc2cc(N3CCN(C)CC3)nc(Sc3ccc(NC(=O)C4CC4)cc3)n2)n[nH]1 [Tozasertib] (partner 0.1 µM)
How it was run: as §1

Cell Line | relative viability (Axitinib + Pemetrexed; first compound 0.005 µM) | relative viability (Axitinib + Pemetrexed; first compound 0.01581 µM) | relative viability (Axitinib + Pemetrexed; first compound 0.05 µM) | relative viability (Axitinib + Pemetrexed; first compound 0.1581 µM) | relative viability (Axitinib + Pemetrexed; first compound 0.5 µM) | relative viability (Bemcentinib + Bortezomib; first compound 0.04 µM) | relative viability (Bemcentinib + Bortezomib; first compound 0.1265 µM) | relative viability (Bemcentinib + Bortezomib; first compound 0.4 µM) | relative viability (Bemcentinib + Bortezomib; first compound 1.265 µM) | relative viability (Bemcentinib + Bortezomib; first compound 4 µM) | relative viability (Bemcentinib + Lapatinib; first compound 0.04 µM) | relative viability (Bemcentinib + Lapatinib; first compound 0.1265 µM) | relative viability (Bemcentinib + Lapatinib; first compound 0.4 µM) | relative viability (Bemcentinib + Lapatinib; first compound 1.265 µM) | relative viability (Bemcentinib + Lapatinib; first compound 4 µM) | relative viability (Bemcentinib + Tozasertib; first compound 0.04 µM) | relative viability (Bemcentinib + Tozasertib; first compound 0.1265 µM) | relative viability (Bemcentinib + Tozasertib; first compound 0.4 µM) | relative viability (Bemcentinib + Tozasertib; first compound 1.265 µM) | relative viability (Bemcentinib + Tozasertib; first compound 4 µM)
H3255 | 0.531 | 0.527 | 0.568 | 0.568 | 0.578 | 0.648 | 0.863 | 0.767 | 0.803 | 0.715 | 0.222 | 0.352 | 0.229 | 0.237 | 0.191 | 0.566 | 0.678 | 0.619 | 0.782 | 0.655
NCI-H1915 | 0.497 | 0.494 | 0.501 | 0.522 | 0.536 | 0.731 | 1.02 | 1.04 | 0.853 | 1.05 | 0.958 | 1.07 | 0.979 | 1.09 | 1.05 | 0.511 | 0.462 | 0.44 | 0.468 | 0.443
NCI-H2023 | 0.237 | 0.232 | 0.177 | 0.252 | 0.291 | 0.938 | 1.03 | 1.04 | 1.15 | 1.12 | 0.739 | 0.866 | 0.868 | 0.808 | 0.874 | 0.484 | 0.438 | 0.433 | 0.295 | 0.273
NCI-H3122 | 0.218 | 0.196 | 0.219 | 0.193 | 0.212 | 0.911 | 1.04 | 0.991 | 0.937 | 0.994 | 0.818 | 1.03 | 1.03 | 1.02 | 1.03 | – | 0.488 | 0.402 | 0.427 | 0.381
NCI-H1650 | 0.415 | 0.352 | 0.361 | 0.436 | 0.408 | 0.199 | 0.209 | 0.199 | 0.192 | 0.225 | 0.7 | 0.817 | 0.74 | 0.921 | 0.79 | 0.386 | 0.382 | 0.44 | 0.288 | 0.373
NCI-H2087 | 0.766 | 0.593 | 0.597 | 0.7 | 0.728 | 0.736 | 1.09 | 0.994 | 0.61 | 0.769 | 0.992 | 0.951 | 1.08 | 1.01 | 1.01 | 0.226 | 0.251 | 0.276 | 0.28 | 0.252
RERF-LC-KJ | 0.435 | 0.443 | 0.485 | 0.491 | 0.502 | 1.1 | 1.29 | 1.3 | 1.21 | 1.09 | 0.848 | 1.02 | 1.15 | 0.919 | 0.885 | 0.557 | 0.531 | 0.485 | 0.553 | 0.466
NCI-H1437 | 0.321 | 0.325 | 0.324 | 0.336 | 0.324 | 0.54 | 0.546 | 0.503 | 0.405 | 0.489 | 0.798 | 0.764 | 0.854 | 0.771 | 0.882 | 0.399 | 0.435 | 0.436 | 0.421 | 0.401
NCI-H1651 | 0.567 | 0.586 | 0.587 | 0.618 | 0.657 | 0.955 | 1.05 | 1.03 | 0.745 | 0.878 | 0.836 | 0.979 | 1.1 | 0.815 | 0.822 | 0.671 | 0.835 | 0.87 | 0.77 | 0.635
PC-14 | 0.135 | 0.114 | 0.158 | 0.137 | 0.142 | 0.86 | 0.849 | 0.934 | 0.911 | 1 | 0.336 | 0.372 | 0.339 | 0.3 | 0.284 | 0.584 | 0.706 | 0.538 | 0.645 | 0.601
NCI-H1666 | 0.865 | 0.972 | 0.899 | 0.958 | 0.873 | 0.649 | 0.937 | 0.854 | 0.895 | 0.759 | 0.668 | 0.813 | 0.599 | 0.649 | 0.606 | 0.605 | 0.619 | 0.621 | 0.594 | 0.595
NCI-H661 | 0.885 | 0.916 | 0.902 | 0.942 | 0.956 | 0.782 | 0.92 | 0.887 | 0.772 | 0.899 | 0.484 | 0.431 | 0.491 | 0.567 | 0.469 | 0.357 | 0.344 | 0.338 | 0.34 | 0.339
HCC-44 | 0.625 | 0.631 | 0.626 | 0.624 | 0.676 | 0.974 | 0.92 | 0.992 | 0.89 | 0.917 | 1.06 | 1.07 | 1.14 | 1.1 | 1.06 | 0.913 | 1.46 | 0.872 | 0.956 | 0.888
PC-3 [JPC-3] | 0.963 | – | 1.32 | 1.06 | 1.16 | 0.803 | 0.948 | 0.8 | 0.906 | 0.869 | 0.455 | 0.495 | 0.421 | 0.425 | 0.471 | 0.852 | 0.927 | 0.897 | 0.941 | 0.863
LC-2-ad | 0.261 | 0.257 | 0.268 | 0.271 | 0.277 | 1 | 1.01 | 1.11 | 0.968 | 0.982 | 0.921 | 1.09 | 0.979 | 0.943 | 0.995 | 0.451 | 0.478 | 0.451 | 0.486 | 0.442
NCI-H460 | 0.0553 | 0.0645 | 0.0676 | 0.0593 | 0.0611 | 1.24 | 1.54 | 1.66 | 1.25 | 1.15 | 0.931 | 1.46 | 1.3 | 1.14 | 1.12 | 0.432 | 0.619 | 0.525 | 0.364 | 0.524
